{"source": "paper PMC9046208", "about": "“Foldamers reveal and validate therapeutic targets associated with toxic α-synuclein self-assembly” (Nature Communications, 2022)", "key": {"[1]": {"tested_on": "HEK cells expressing αS-A53T-YFP", "experiment": "Intracellular seed catalyzed aggregation in HEK cells, inclusion count", "type": "cell-based", "conditions": "10 µM SK-129 added 8 h after αS seeds (0.125 µM)", "description": "The HEK cells (200,000 cells/mL) were plated in an µ-slide eight-well plate (300 µL/well) and incubated at 37 °C and 5% CO2 (g), and allowed to adhere to the plate for 24 h in media (DMEM, 10% FBS, 1% pen/strep). […] The HEK cells were incubated with αS fibrils for 8 h followed by the addition of 10 µM SK-129 for 300 µL media in each well (0.3 µL of 10 mM stock solution in DMSO, total DMSO = 0.1% v,v). The eight-well plate was incubated for a total of 24 h. The eight-well plate after 24 h was used for both confocal imaging and for the cytotoxicity measurements using MTT assay (2 wells/condition, 300 µL/well). In each experiment, 2 wells were used for each condition, including control (only media and DMSO), fibrils, and fibrils+SK-129.\nThe HEK cells in the eight-well plate were treated with a Hoechst 33342 dye solution for 1 h by adding 3 µL to each well (from 1 mg/ml solution in 1x PBS buffer). The Hoechst 33342 solution was carefully mixed with media by pipetting up and down for a few times. […] The counting of inclusions was carried out for six different experiments and for each experiment, 100 cells were counted from at least four different locations from the eight-well plate. The cells were counted manually by counting the number of Hoechst 33342 dye-stained nuclei in the cells. The inclusions in the cells were counted manually at different locations in the eight-well plate. […]"}, "[2]": {"biological_target": "T1, αS aggregation in the presence of LUVs (DOPS) (Homo sapiens, UniProt P37840)", "T1 construct": "made in house; host or cells: Escherichia coli BL21(DE3), periplasm", "experiment": "Lipid (LUVs, DOPS) catalyzed αS aggregation, ThT", "type": "biochemical", "conditions": "equimolar ratio", "description": "The aggregation kinetics of αS was monitored using ThT fluorescence assay (λex = 450 nm and λem = 485 nm). To study the aggregation kinetics of αS, the ThT dye at a final concentration of 50 μM was added to 100 μM αS solution in the aggregation buffer (1 x PBS buffer) with and without various concentrations of SK-129 in a Costar black 96–well plate (Corning Inc., Kennebunk, ME). The small molecules were dissolved in dimethyl sulfoxide (DMSO; final DMSO concentration = 0.5%, v/v). The final volume in each well was 140 μL. The plate was incubated at 37 °C with 16 min shaking (434 rpm) and 44 min without shaking in an Infinite M200PRO plate reader (Tecan, Männedorf, Switzerland) and fluorescence was recorded after every hour. We used two methods to quantify the effect of molecules on the aggregation of αS; either we have reported the t50 (time required to reach 50% fluorescence of ThT), which was extracted by fitting the ThT curve as a sigmoidal fit or the absolute ThT fluorescence intensity was reported. […] In the second method, we determined the final ThT fluorescence intensity for the aggregation of αS/Aβ42(with or without ligands) as an average of three separate experiments. […]\nlipid-free and lipid-catalyzed aggregation of αS was monitored after 7 days. […]\nequimolar ratio after four days. The data were expressed as mean and the error bars report the […]"}, "[3]": {"biological_target": "T2, αS2 seed-catalyzed aggregation (Homo sapiens, UniProt P37840, DEL15-23)", "T2 construct": "made in house", "experiment": "Seed-catalyzed ThT aggregation assay (10% WT αS seeds), αS2", "type": "biochemical", "conditions": "αS2, equimolar ratio", "description": "Seed-catalyzed αS aggregation assay was performed similarly to a previously described protocol. Briefly, 100 μM monomeric WT αS solution (200 μL, in 1x PBS buffer) was placed into a ThermoMixer (Eppendorf, Hamberg, Germany) and shook for five days at a rate of […] and 37 °C. The solution was sonicated for 10 min and used as αS seeds. The seed-catalyzed aggregation of WT αS/ αS variants was performed by adding αS seeds (10% seeds, αS in monomeric concentration, v/v) into 140 μL of fresh 100 μM WT αS/ αS variants solution and aggregation was started with constant shaking at a rate of […] and 37 °C. The aggregation of proteins was monitored at the indicated times (See the main manuscript) using the above-mentioned method.\nThe ThT aggregation assay for each protein (WT αS and αS variants) in the presence of SK-129 was carried out the above-mentioned method. SK-129 (from 10 mM stock solution in DMSO) was added at an equimolar ratio (1% DMSO, v/v) to the proteins at the start of the aggregation experiment. The concentration of DMSO was kept constant (1%, v/v) in protein (WT αS and αS variants), control, and protein+molecule solutions. The kinetic profiles of protein aggregation were processed using OriginPro software (Version 9.1). Kinetic curves were fit using a built-in sigmoidal fit in the OriginLab."}}}
{"molecule": "COC(=O)c1cc(OCC(=O)O)c2cccc(NC(=O)c3cc(OC(C)C)c4cccc(NC(=O)c5cc(OCC(=O)O)c6cccc(NC(=O)c7cc(OC(C)C)c8cccc([N+](=O)[O-])c8n7)c6n5)c4n3)c2n1", "note": "[SK-129]", "values": [{"measurement": "number of inclusions", "setting": "[1]; total 24 h, without SK-129 ~19", "result": "1–2 inclusions/100 cells"}, {"measurement": "number of inclusions", "setting": "[1]; up to 4 days", "result": "2–3 inclusions/100 cells"}, {"measurement": "effect on lipid catalyzed aggregation of αS", "setting": "[2]", "result": "wholly inhibited"}, {"measurement": "effect on seed-catalyzed aggregation", "setting": "[3]", "result": "wholly suppressed"}]}
